# Experiments:
# Format in all cases: cell-based
# [1] = target: EP2 subtype of the human PGE2 receptor (Homo sapiens, UniProt P43116); test: cAMP antagonism test on the human EP2 receptor (HTRF cAMP detection); settings: hEP2 receptor, read-out: Antagonism hEP2 IC50
# Summary of the method: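 Read-out is a competitive HTRF for cAMP: lysate cAMP displaces cAMP-d2 from Eu cryptate-labelled antibody, and antagonism raises the 665/620 nm ratio. Compound (0.8 nM–16.5 μM) added to EP2 cells 20 min at RT before 60 min PGE2 challenge (3× stock 1.5 nM) with IBMX, followed by 20 min lysis.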
# human PGD receptor = target: T1, human PGD receptor (Homo sapiens, UniProt Q13258); test: cAMP antagonism test on the human prostaglandin D receptor (HTRF cAMP detection); settings: selectivity towards hDP, IC50 measured by cAMP antagonism test
# T1 sequence (Q13258 1-359): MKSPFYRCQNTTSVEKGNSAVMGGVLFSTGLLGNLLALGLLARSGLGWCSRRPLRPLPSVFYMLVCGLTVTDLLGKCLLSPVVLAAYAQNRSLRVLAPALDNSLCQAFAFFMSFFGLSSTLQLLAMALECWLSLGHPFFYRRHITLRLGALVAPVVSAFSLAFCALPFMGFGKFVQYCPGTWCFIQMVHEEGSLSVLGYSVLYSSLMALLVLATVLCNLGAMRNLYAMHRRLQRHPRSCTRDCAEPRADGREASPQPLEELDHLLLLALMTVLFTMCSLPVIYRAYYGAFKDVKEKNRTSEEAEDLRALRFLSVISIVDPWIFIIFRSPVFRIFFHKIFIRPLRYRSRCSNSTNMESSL
# Summary of the method: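 HTRF competition read-out (665/620 nm ratio ×10000), where higher FRET means less cAMP, i.e. antagonism. Compounds (0.8 nM–16.5 μM) were preincubated 20 min at RT with cells and cAMP-d2, PGD2 (3× solution, 6 nM) in IBMX-containing PBS added for 30 min at RT, then cells lysed 20 min.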
# [2] = target: EP4 subtype of the human PGE2 receptor (Homo sapiens, UniProt P35408); test: cAMP antagonism test on the human EP4 receptor (HTRF cAMP detection); settings: selectivity towards hEP4, IC50 measured by cAMP antagonism test
# Sequence of EP4 subtype of the human PGE2 receptor (P35408 whole entry): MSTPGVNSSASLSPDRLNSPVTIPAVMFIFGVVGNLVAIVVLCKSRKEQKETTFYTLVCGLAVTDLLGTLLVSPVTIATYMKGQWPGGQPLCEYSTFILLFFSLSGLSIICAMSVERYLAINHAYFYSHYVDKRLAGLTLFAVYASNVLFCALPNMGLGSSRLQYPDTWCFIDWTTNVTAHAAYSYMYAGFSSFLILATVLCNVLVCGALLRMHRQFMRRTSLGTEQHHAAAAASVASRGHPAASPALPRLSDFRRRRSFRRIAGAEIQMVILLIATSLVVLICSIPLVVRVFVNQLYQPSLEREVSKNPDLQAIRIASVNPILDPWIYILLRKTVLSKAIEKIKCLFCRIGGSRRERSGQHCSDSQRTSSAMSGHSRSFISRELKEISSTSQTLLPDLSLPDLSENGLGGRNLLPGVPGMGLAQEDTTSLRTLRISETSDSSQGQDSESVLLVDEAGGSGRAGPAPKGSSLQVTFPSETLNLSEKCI
# Summary of the method: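 Competitive HTRF cAMP read-out (cAMP-d2 vs Eu-cryptate anti-cAMP antibody, 665/620 nm ratio) on lysed human EP4 cells. Compound (0.8 nM–16.5 μM) applied 20 min at RT before 60 min PGE2 challenge (3× solution 0.3 nM, IBMX present); 20 min lysis precedes reading.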
# Sequence of EP2 subtype of the human PGE2 receptor (P43116 whole entry): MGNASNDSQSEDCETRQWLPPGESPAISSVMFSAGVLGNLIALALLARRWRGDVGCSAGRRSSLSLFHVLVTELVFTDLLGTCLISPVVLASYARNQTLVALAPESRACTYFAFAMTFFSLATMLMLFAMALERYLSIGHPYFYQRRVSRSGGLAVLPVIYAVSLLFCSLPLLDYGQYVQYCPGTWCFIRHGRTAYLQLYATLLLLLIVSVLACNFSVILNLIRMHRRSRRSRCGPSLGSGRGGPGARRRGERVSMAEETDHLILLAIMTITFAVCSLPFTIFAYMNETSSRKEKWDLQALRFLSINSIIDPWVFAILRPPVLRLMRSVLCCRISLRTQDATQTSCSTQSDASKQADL
SMILES,IC50 [1],Selectivity hEP2/hDP (human PGD receptor),Selectivity hEP2/hEP4 [2]
"Cc1cc2nn(CC3CCN(C(=O)c4cccc(OC(F)(F)F)c4)CC3)cc2cc1C(=O)NCCN1CCOCC1 [Example 76, 6-methyl-N-(2-morpholinoethyl)-2-({1-[3-(trifluorometh-oxy)benzoyl]piperidin-4-yl}methyl)-2H-indazol-5-carboxamide]",179 nM,xx (xx: 10-100),xx (xx: 10-100)
"COc1cc(F)ccc1-c1ccc(C(=O)N2CCC(Cn3cc4c(C)c(C(=O)NCC(F)(F)F)ccc4n3)CC2)cc1 [Example 320, 2-({1-[(4′-fluoro-2′-methoxybiphenyl-4-yl)carbonyl]piperidin-4-yl}methyl)-4-methyl-N-(2,2,2-trifluoroethyl)-2H-indazol-5-carboxamide]",15.6 nM,xxx (xxx > 100),xxx (xxx > 100)
"COCCNC(=O)c1ccc2nn(CC3CCN(C(=O)c4ccc(OC5CCOCC5)cc4)CC3)cc2c1C [Example 353, N-(2-methoxyethyl)-4-methyl-2-({1-[4-(3,4,5,6-tetrahydro-2H-pyran-4-yloxy)-benzoyl]piperidin-4-yl}methyl)-2H-indazol-5-carboxamide]",50.2 nM,xxx (xxx > 100),xxx (xxx > 100)
"COCCNC(=O)c1ccc2nn(CC3CCN(C(=O)c4ccc(N5CCOCC5)cc4)CC3)cc2c1C [Example 4, N-(2-methoxyethyl)-4-methyl-2-{[1-(4-morpholinobenzoyl)piperidin-4-yl]methyl}-2H-indazol-5-carboxamide]",68.1 nM,xxx (xxx > 100),xxx (xxx > 100)
"COCCNC(=O)c1cc2cn(CC3CCN(C(=O)c4ccc(C(F)(F)F)cc4F)CC3)nc2cc1C [Example 206, 2-({1-[2-fluoro-4-(trifluoromethyl)benzoyl]piperidin-4-yl}methyl)-N-(2-methoxy-ethyl)-6-methyl-2H-indazol-5-carboxamide]",41.3 nM,xxx (xxx > 100),xxx (xxx > 100)
"Cc1c(C(=O)NCC2CCCCO2)ccc2nn(CC3CCN(C(=O)c4ccc(Oc5ccc(C(F)(F)F)cc5)cc4)CC3)cc12 (racemic) [Example 248, (+/−)-4-methyl-N-(3,4,5,6-tetrahydro-2H-pyran-2-ylmethyl)-2-[(1-{4-[4-(trifluoromethyl)phenoxy]benzoyl}piperidin-4-yl)methyl]-2H-indazol-5-carboxamide]",14.7 nM,xxx (xxx > 100),xxx (xxx > 100)
"COCCNC(=O)c1cc2cn(CC3CCN(C(=O)c4ccc(Cl)cc4)CC3)nc2cc1C [Example 205, 2-{[1-(4-chlorobenzoyl)piperidin-4-yl]methyl}-N-(2-methoxyethyl)-6-methyl-2H-indazol-5-carboxamide]",43.3 nM,xxx (xxx > 100),xxx (xxx > 100)
"Cc1c(C(=O)NCC(C)OCC2CC2)ccc2nn(CC3CCN(C(=O)c4ccc(Cl)cc4)CC3)cc12 (racemic) [Example 102, (+/−)-2-{[1-(4-chlorobenzoyl)piperidin-4-yl]methyl}-N-[2-(cyclopropylmethoxy)propyl]-4-methyl-2H-indazol-5-carboxamide]",410 nM,xx (xx: 10-100),xx (xx: 10-100)
"COCCNC(=O)c1ccc2nn(CC3CCN(C(=O)c4ccc(-c5cccc(C(F)(F)F)c5)cc4F)CC3)cc2c1C [Example 45, 2-[(1-{[3-fluoro-3′-(trifluoromethyl)-biphenyl-4-yl]-carbonyl}-piperidin-4-yl)-methyl]-N-(2-methoxyethyl)-4-methyl-2H-indazol-5-carboxamide]",5.51 nM,xxx (xxx > 100),xxx (xxx > 100)
"Cc1c(C(=O)NCCOCC(F)(F)F)ccc2nn(CC3CCN(C(=O)c4ccc(Oc5ccc(F)cc5)cc4)CC3)cc12 [Example 92, 2-({1-[4-(4-fluoro-phenoxy)benzoyl]-piperidin-4-yl}-methyl)-4-methyl-N-[2-(2,2,2-tri-fluoroethoxy)ethyl]-2H-indazol-5-carboxamide]",12.7 nM,xxx (xxx > 100),xxx (xxx > 100)
"COCCNC(=O)c1cc2cn(CC3CCN(C(=O)c4ccc(Cl)c(C(F)(F)F)c4)CC3)nc2cc1C [Example 209, 2-({1-[4-chloro-3-(trifluoromethyl)benzoyl]piperidin-4-yl}methyl)-N-(2-methoxyethyl)-6-methyl-2H-indazol-5-carboxamide]",25.1 nM,xxx (xxx > 100),xxx (xxx > 100)
"COCCNC(=O)c1ccc2nn(CC3CCN(C(=O)c4ccc(-c5ccc(OC)cc5C)cc4)CC3)cc2c1C [Example 370, N-(2-methoxyethyl)-2-({1-[(4′-methoxy-2′-methylbiphenyl-4-yl)carbonyl]-piperidin-4-yl}methyl)-4-methyl-2H-indazol-5-carboxamide]",3.07 nM,xxx (xxx > 100),xxx (xxx > 100)
"COCCNC(=O)c1ccc2nn(CC3CCN(C(=O)c4ccc(Oc5ccc(F)c(F)c5)cc4)CC3)cc2c1C [Example 359, 2-({1-[4-(3,4-difluorophenoxy)benzoyl]piperidin-4-yl}methyl)-N-(2-methoxy-ethyl)-4-methyl-2H-indazol-5-carboxamide]",6.99 nM,xxx (xxx > 100),xxx (xxx > 100)
"COCCNC(=O)c1ccc2nn(CC3CCN(C(=O)c4ccc(Oc5ncccn5)cc4)CC3)cc2c1C [Example 342, N-(2-methoxyethyl)-4-methyl-2-({1-[4-(pyrimidin-2-yloxy)benzoyl]piperidin-4-yl}methyl)-2H-indazol-5-carboxamide]",103 nM,xxx (xxx > 100),xxx (xxx > 100)
"Cc1c(C(=O)NCCOC(F)(F)F)ccc2nn(CC3CCN(C(=O)c4ccc(Cl)cc4)CC3)cc12 [Example 107, 2-{[1-(4-chlorobenzoyl)piperidin-4-yl]methyl}-4-methyl-N-[2-(trifluoromethoxy)ethyl]-2H-indazol-5-carboxamide]",11.4 nM,xxx (xxx > 100),xxx (xxx > 100)
"COCCNC(=O)c1ccc2nn(CC3CCN(C(=O)c4ccc(-c5ccc(C(F)(F)F)nc5)cc4)CC3)cc2c1C [Example 374, N-(2-methoxyethyl)-4-methyl-2-[(1-{4-[6-(trifluoromethyl)pyridin-3-yl]-benzoyl}piperidin-4-yl)methyl]-2H-indazol-5-carboxamide]",6.58 nM,xxx (xxx > 100),xxx (xxx > 100)
"COCCNC(=O)c1cc2cn(CC3CN(C(=O)c4ccc(Cl)c(C(F)(F)F)c4)C3)nc2cc1C [Example 185, 2-({1-[4-chloro-3-(trifluoromethyl)benzoyl]azetidin-3-yl}methyl)-N-(2-methoxy-ethyl)-6-methyl-2H-indazol-5-carboxamide]",24.8 nM,xxx (xxx > 100),xxx (xxx > 100)

# Source: patent US9062041B2 (Bayer Intellectual Property GmbH, priority 2011, dated 2015)
